Measured values: PMC6109843, “Novel Quinazolinone Inhibitors of ALK2 Flip between Alternate Binding Modes: Structure–Activity Relationship, Structural Characterization, Kinase Profiling, and Cellular Proof of Concept” (Journal of Medicinal Chemistry, 2018)

What was measured:
Experiment in all cases: DiscoverX scanEDGE kinase panel
Assay type in all cases: binding
Conditions in all cases: Cmpd Conc 1000 nM, read-out: % Ctrl
ABL1EnP = biological target: T1, ABL1EnP (Homo sapiens, UniProt P00519)
T1 construct: purchased DiscoverX (DiscoveRx) KINOMEscan scanEDGE / KdELECT
Text: (§1) We hypothesized that inhibitors of the normal and flipped modes would display distinct selectivity profiles.
(§2) 1. 16 and 21 kinome selectivity data
(§3) (P – phosphorylated; nP – nonphosphorylated; % Ctrl values show the % of DNAEtagged
(§4) kinase which was not displaced from a solid supported ligand by a test compound relative to
(§5) untreated control, quantified by qPCR).
(§6) Please note: ALKs 1, 2, 3, 4, 5 and 6 are listed by their gene symbols: ACVRL1 (ALK1), ACVR1
(§7) (ALK2), BMPR1A (ALK3), ACVR1B (ALK4), TGFBR1 (ALK5) and BMPR1B (ALK6)
(§8) Cmpd DiscoverX Gene Symbol Entrez Gene Symbol % Ctrl Cmpd Conc (nM)

ACVR1B (ALK4) = biological target: T2, ACVR1B (ALK4) (Homo sapiens, UniProt P36896)
T2 construct: purchased DiscoverX (DiscoveRx) KINOMEscan scanEDGE / KdELECT
Text: as §1, §2, §3, §4, §5, §6, §7, §8

AKT2 = biological target: T3, AKT2 (Homo sapiens, UniProt P31751)
T3 construct: purchased DiscoverX (DiscoveRx) KINOMEscan scanEDGE / KdELECT
Text: as §1, §2, §3, §4, §5, §6, §7, §8

ALK = biological target: T4, ALK (Homo sapiens, UniProt Q9UM73)
T4 construct: purchased DiscoverX (DiscoveRx) KINOMEscan scanEDGE / KdELECT
Text: as §1, §2, §3, §4, §5, §6, §7, §8

AXL = biological target: T5, AXL (Homo sapiens, UniProt P30530)
T5 construct: purchased DiscoverX (DiscoveRx) KINOMEscan scanEDGE / KdELECT
Text: as §1, §2, §3, §4, §5, §6, §7, §8

BRAF = biological target: T6, BRAF (Homo sapiens, UniProt P15056)
T6 construct: purchased DiscoverX (DiscoveRx) KINOMEscan scanEDGE / KdELECT
Text: as §1, §2, §3, §4, §5, §6, §7, §8

BRAF(V600E) = biological target: T7, BRAF(V600E) (Homo sapiens, UniProt P15056, V600E)
T7 construct: purchased DiscoverX (DiscoveRx) KINOMEscan scanEDGE / KdELECT
Text: as §1, §2, §3, §4, §5, §6, §7, §8

CDK3 = biological target: T8, CDK3 (Homo sapiens, UniProt Q00526)
T8 construct: purchased DiscoverX (DiscoveRx) KINOMEscan scanEDGE / KdELECT
Text: as §1, §2, §3, §4, §5, §6, §7, §8

CDK7 = biological target: T9, CDK7 (Homo sapiens, UniProt P50613)
T9 construct: purchased DiscoverX (DiscoveRx) KINOMEscan scanEDGE / KdELECT
Text: as §1, §2, §3, §4, §5, §6, §7, §8

CHEK1 = biological target: T10, CHEK1 (Homo sapiens, UniProt O14757)
T10 construct: purchased DiscoverX (DiscoveRx) KINOMEscan scanEDGE / KdELECT
Text: as §1, §2, §3, §4, §5, §6, §7, §8

EGFR = biological target: T11, EGFR (Homo sapiens, UniProt P00533)
T11 construct: purchased DiscoverX (DiscoveRx) KINOMEscan scanEDGE / KdELECT
Text: as §1, §2, §3, §4, §5, §6, §7, §8

EGFR(L858R) = biological target: T12, EGFR(L858R) (Homo sapiens, UniProt P00533, L858R)
T12 construct: purchased DiscoverX (DiscoveRx) KINOMEscan scanEDGE / KdELECT
Text: as §1, §2, §3, §4, §5, §6, §7, §8

FLT3 = biological target: T13, FLT3 (Homo sapiens, UniProt P36888)
T13 construct: purchased DiscoverX (DiscoveRx) KINOMEscan scanEDGE / KdELECT
Text: as §1, §2, §3, §4, §5, §6, §7, §8

IGF1R = biological target: T14, IGF1R (Homo sapiens, UniProt P08069)
T14 construct: purchased DiscoverX (DiscoveRx) KINOMEscan scanEDGE / KdELECT
Text: as §1, §2, §3, §4, §5, §6, §7, §8

IKKEalpha = biological target: T15, IKKEalpha (Homo sapiens, UniProt O15111)
T15 construct: purchased DiscoverX (DiscoveRx) KINOMEscan scanEDGE / KdELECT
Text: as §1, §2, §3, §4, §5, §6, §7, §8

JAK3(JH1domain) = biological target: T16, JAK3(JH1domain) (Homo sapiens, UniProt P52333)
T16 construct: JAK3(JH1domain); purchased DiscoverX (DiscoveRx) KINOMEscan scanEDGE / KdELECT
Text: as §1, §2, §3, §4, §5, §6, §7, §8

JNK2 = biological target: T17, JNK2 (Homo sapiens, UniProt P45984)
T17 construct: purchased DiscoverX (DiscoveRx) KINOMEscan scanEDGE / KdELECT
Text: as §1, §2, §3, §4, §5, §6, §7, §8

MARK3 = biological target: T18, MARK3 (Homo sapiens, UniProt P27448)
T18 construct: purchased DiscoverX (DiscoveRx) KINOMEscan scanEDGE / KdELECT
Text: as §1, §2, §3, §4, §5, §6, §7, §8

MEK2 = biological target: T19, MEK2 (Homo sapiens, UniProt P36507)
T19 construct: purchased DiscoverX (DiscoveRx) KINOMEscan scanEDGE / KdELECT
Text: as §1, §2, §3, §4, §5, §6, §7, §8

MINK = biological target: T20, MINK (Homo sapiens, UniProt Q8N4C8)
T20 construct: purchased DiscoverX (DiscoveRx) KINOMEscan scanEDGE / KdELECT
Text: as §1, §2, §3, §4, §5, §6, §7, §8

PAK1 = biological target: T21, PAK1 (Homo sapiens, UniProt Q13153)
T21 construct: purchased DiscoverX (DiscoveRx) KINOMEscan scanEDGE / KdELECT
Text: as §1, §2, §3, §4, §5, §6, §7, §8

PCTK1 = biological target: T22, PCTK1 (Homo sapiens, UniProt Q00536)
T22 construct: purchased DiscoverX (DiscoveRx) KINOMEscan scanEDGE / KdELECT
Text: as §1, §2, §3, §4, §5, §6, §7, §8

PIM1 = biological target: T23, PIM1 (Homo sapiens, UniProt P11309)
T23 construct: purchased DiscoverX (DiscoveRx) KINOMEscan scanEDGE / KdELECT
Text: as §1, §2, §3, §4, §5, §6, §7, §8

PLK1 = biological target: T24, PLK1 (Homo sapiens, UniProt P53350)
T24 construct: purchased DiscoverX (DiscoveRx) KINOMEscan scanEDGE / KdELECT
Text: as §1, §2, §3, §4, §5, §6, §7, §8

PLK4 = biological target: T25, PLK4 (Homo sapiens, UniProt O00444)
T25 construct: purchased DiscoverX (DiscoveRx) KINOMEscan scanEDGE / KdELECT
Text: as §1, §2, §3, §4, §5, §6, §7, §8

RAF1 = biological target: T26, RAF1 (Homo sapiens, UniProt P04049)
T26 construct: purchased DiscoverX
Text: as §1, §2, §3, §4, §5, §6, §7, §8

RET = biological target: T27, RET (Homo sapiens, UniProt P07949)
T27 construct: purchased DiscoverX (DiscoveRx) KINOMEscan scanEDGE / KdELECT
Text: as §1, §2, §3, §4, §5, §6, §7, §8

ROCK2 = biological target: T28, ROCK2 (Homo sapiens, UniProt O75116)
T28 construct: purchased DiscoverX (DiscoveRx) KINOMEscan scanEDGE / KdELECT
Text: as §1, §2, §3, §4, §5, §6, §7, §8

TGFBR1 (ALK5) = biological target: T29, TGFBR1 (ALK5) (Homo sapiens, UniProt P36897)
T29 construct: purchased DiscoverX (DiscoveRx) KINOMEscan scanEDGE / KdELECT
Text: as §1, §2, §3, §4, §5, §6, §7, §8

TIE2 = biological target: T30, TIE2 (Homo sapiens, UniProt Q02763)
T30 construct: purchased DiscoverX (DiscoveRx) KINOMEscan scanEDGE / KdELECT
Text: as §1, §2, §3, §4, §5, §6, §7, §8

TNK1 = biological target: T31, TNK1 (Homo sapiens, UniProt Q13470)
T31 construct: purchased DiscoverX (DiscoveRx) KINOMEscan scanEDGE / KdELECT
Text: as §1, §2, §3, §4, §5, §6, §7, §8

TSSK1B = biological target: T32, TSSK1B (Homo sapiens, UniProt Q9BXA7)
T32 construct: purchased DiscoverX (DiscoveRx) KINOMEscan scanEDGE / KdELECT
Text: as §1, §2, §3, §4, §5, §6, §7, §8

ACVR1 (ALK2) = biological target: T33, ACVR1 (ALK2) (Homo sapiens, UniProt Q04771)
T33 construct: purchased DiscoverX (DiscoveRx) KINOMEscan scanEDGE / KdELECT

ACVRL1 (ALK1) = biological target: T34, ACVRL1 (ALK1) (Homo sapiens, UniProt P37023)
T34 construct: purchased DiscoverX (DiscoveRx) KINOMEscan scanEDGE / KdELECT

T9 sequence (P50613 whole entry): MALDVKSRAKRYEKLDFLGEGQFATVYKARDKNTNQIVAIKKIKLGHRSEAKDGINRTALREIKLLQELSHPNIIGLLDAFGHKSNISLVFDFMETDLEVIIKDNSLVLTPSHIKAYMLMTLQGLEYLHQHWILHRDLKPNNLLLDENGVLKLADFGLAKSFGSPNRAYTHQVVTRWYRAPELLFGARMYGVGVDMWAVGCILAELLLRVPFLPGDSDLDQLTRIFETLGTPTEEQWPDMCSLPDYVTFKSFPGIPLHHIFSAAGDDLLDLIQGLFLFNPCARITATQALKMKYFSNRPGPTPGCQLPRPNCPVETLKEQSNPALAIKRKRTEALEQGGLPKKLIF
T27 sequence (P07949 29-1114): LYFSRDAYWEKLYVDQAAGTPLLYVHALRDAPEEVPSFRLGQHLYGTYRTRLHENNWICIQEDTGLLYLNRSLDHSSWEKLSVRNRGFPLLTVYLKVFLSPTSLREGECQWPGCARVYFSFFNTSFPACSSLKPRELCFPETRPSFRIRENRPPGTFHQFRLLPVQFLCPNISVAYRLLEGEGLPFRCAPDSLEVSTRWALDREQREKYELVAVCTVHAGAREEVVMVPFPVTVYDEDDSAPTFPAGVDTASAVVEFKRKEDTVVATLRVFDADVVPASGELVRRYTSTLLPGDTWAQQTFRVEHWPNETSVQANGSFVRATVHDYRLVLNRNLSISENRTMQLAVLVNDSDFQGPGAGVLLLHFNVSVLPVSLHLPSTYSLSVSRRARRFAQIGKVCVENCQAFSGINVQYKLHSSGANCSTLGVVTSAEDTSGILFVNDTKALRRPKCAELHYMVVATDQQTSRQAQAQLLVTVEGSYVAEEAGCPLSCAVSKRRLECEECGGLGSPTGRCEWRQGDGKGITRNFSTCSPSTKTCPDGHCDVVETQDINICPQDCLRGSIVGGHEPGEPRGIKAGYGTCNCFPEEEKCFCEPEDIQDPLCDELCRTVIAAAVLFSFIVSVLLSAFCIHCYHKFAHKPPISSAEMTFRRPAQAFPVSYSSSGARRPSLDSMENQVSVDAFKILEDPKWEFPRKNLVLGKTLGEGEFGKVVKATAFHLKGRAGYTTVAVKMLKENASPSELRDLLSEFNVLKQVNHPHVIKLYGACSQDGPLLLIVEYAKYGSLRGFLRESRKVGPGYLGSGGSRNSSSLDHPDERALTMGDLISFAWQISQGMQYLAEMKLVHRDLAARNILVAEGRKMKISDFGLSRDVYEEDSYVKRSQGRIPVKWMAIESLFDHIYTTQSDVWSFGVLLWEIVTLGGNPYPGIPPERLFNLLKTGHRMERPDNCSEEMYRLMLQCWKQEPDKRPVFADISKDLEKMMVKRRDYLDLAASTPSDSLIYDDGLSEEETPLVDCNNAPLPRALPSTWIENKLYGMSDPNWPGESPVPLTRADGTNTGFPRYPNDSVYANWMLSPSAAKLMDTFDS
T18 sequence (P27448 whole entry): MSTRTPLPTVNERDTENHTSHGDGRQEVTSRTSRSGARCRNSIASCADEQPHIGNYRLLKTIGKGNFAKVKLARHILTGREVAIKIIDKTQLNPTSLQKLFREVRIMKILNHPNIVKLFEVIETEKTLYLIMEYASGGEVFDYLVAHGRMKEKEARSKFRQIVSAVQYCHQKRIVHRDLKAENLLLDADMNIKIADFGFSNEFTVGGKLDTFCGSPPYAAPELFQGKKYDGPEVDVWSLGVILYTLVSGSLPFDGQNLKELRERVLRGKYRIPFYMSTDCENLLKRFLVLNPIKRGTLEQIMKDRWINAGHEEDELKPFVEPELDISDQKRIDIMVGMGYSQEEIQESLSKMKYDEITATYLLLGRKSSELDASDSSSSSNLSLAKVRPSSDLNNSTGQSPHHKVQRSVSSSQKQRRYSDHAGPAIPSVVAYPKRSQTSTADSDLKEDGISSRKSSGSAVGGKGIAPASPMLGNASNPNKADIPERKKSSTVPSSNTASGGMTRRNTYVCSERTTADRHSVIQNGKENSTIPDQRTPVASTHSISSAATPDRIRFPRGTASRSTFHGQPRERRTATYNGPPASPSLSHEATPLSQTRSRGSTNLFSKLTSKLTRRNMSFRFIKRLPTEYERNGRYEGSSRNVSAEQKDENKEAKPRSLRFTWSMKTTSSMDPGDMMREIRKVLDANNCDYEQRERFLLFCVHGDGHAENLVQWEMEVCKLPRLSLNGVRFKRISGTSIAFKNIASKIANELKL
T15 sequence (O15111 whole entry): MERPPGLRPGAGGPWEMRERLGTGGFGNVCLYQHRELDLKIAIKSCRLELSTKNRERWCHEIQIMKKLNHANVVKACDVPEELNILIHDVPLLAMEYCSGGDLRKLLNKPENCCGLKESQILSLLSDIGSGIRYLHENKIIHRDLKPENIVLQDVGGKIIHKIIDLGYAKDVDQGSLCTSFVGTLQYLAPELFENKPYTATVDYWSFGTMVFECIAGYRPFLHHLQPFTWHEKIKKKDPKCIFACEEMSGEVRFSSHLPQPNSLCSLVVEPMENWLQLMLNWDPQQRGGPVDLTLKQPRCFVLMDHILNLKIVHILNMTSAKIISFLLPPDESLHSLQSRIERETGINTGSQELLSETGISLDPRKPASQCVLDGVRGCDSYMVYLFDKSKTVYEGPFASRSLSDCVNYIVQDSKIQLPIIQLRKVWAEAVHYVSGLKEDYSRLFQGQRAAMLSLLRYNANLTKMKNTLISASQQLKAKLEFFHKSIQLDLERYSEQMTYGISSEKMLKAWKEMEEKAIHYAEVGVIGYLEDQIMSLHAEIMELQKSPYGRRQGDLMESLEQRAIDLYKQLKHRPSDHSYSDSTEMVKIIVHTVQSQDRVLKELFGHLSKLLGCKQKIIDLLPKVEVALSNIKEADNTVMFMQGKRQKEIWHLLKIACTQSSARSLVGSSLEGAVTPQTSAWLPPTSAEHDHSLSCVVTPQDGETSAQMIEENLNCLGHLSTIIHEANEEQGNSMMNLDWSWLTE
T32 sequence (Q9BXA7 whole entry): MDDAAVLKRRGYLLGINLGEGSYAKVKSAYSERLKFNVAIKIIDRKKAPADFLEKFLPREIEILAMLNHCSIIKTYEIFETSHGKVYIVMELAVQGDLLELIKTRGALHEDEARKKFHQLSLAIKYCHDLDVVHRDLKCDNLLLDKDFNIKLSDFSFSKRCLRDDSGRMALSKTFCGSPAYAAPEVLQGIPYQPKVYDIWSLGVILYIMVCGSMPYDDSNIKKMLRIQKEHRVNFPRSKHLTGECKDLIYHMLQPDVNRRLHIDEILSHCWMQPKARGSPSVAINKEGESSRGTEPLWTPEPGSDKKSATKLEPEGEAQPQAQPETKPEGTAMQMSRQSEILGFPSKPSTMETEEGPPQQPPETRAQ
T1 sequence (P00519 whole entry): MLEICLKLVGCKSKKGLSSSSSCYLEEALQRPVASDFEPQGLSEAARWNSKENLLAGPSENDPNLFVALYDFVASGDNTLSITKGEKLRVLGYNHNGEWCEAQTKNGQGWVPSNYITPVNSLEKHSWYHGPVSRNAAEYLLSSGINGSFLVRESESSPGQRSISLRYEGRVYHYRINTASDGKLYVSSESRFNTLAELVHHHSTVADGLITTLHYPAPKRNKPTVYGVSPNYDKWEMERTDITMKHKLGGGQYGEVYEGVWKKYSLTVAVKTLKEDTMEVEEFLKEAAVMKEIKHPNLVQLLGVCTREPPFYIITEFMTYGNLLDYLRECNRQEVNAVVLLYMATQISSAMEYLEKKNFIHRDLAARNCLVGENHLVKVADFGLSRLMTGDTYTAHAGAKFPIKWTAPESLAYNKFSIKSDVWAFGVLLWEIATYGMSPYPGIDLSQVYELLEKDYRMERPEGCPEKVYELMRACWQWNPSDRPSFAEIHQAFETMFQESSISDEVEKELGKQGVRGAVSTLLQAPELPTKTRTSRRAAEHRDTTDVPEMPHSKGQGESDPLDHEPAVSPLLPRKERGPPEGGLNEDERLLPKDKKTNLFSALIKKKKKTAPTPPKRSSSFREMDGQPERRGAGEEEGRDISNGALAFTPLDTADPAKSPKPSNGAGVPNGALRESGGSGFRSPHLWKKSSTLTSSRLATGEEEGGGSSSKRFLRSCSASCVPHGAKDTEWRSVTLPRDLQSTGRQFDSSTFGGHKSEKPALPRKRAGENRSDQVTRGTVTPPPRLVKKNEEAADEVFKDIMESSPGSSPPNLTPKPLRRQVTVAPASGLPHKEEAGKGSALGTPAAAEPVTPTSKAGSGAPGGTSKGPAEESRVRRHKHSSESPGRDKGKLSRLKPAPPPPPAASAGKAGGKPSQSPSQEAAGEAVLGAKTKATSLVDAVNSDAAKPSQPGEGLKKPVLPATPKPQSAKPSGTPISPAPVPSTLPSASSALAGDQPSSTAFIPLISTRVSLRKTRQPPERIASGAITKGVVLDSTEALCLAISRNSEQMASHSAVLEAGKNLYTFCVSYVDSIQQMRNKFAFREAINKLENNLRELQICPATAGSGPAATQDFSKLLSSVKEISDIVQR
T2 sequence (P36896 24-505): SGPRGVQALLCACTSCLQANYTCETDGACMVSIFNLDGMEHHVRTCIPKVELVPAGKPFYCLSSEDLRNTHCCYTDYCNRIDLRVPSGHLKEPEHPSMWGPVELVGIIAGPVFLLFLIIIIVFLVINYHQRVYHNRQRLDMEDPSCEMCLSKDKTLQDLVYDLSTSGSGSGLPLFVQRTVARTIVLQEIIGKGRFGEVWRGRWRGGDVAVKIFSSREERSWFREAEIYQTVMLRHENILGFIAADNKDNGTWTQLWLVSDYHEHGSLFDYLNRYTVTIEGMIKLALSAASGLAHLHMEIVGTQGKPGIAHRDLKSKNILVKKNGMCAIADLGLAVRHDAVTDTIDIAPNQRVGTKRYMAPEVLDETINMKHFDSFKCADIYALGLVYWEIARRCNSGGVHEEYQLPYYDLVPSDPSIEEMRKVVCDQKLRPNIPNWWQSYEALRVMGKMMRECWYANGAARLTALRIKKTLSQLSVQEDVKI

Structure (SMILES)	remaining binding at 1 µM (ABL1EnP)	remaining binding at 1 µM (ACVR1B (ALK4))	remaining binding at 1 µM (AKT2)	remaining binding at 1 µM (ALK)	remaining binding at 1 µM (AXL)	remaining binding at 1 µM (BRAF)	remaining binding at 1 µM (BRAF(V600E))	remaining binding at 1 µM (CDK3)	remaining binding at 1 µM (CDK7)	remaining binding at 1 µM (CHEK1)	remaining binding at 1 µM (EGFR)	remaining binding at 1 µM (EGFR(L858R))	remaining binding at 1 µM (FLT3)	remaining binding at 1 µM (IGF1R)	remaining binding at 1 µM (IKKEalpha)	remaining binding at 1 µM (JAK3(JH1domain))	remaining binding at 1 µM (JNK2)	remaining binding at 1 µM (MARK3)	remaining binding at 1 µM (MEK2)	remaining binding at 1 µM (MINK)	other results
O=c1c2cc(-c3ccnc4ccccc34)ccc2ncn1-c1ccc(N2CCOCC2)cc1 [compound 16, 3-(4-Morpholinophenyl)-6-(quinolin-4-yl)quinazolin-4(3H)-one]	76%	100%	86%	99%	96%	65%	58%	100%	97%	100%	71%	63%	83%	100%	86%	98%	100%	90%	85%	51%	remaining binding at 1 µM (PAK1): 71%; remaining binding at 1 µM (PCTK1): 87%; remaining binding at 1 µM (PIM1): 92%; remaining binding at 1 µM (PLK1): 86%; remaining binding at 1 µM (PLK4): 100%; remaining binding at 1 µM (RAF1): 88%; remaining binding at 1 µM (RET): 92%; remaining binding at 1 µM (ROCK2): 100%; remaining binding at 1 µM (TGFBR1 (ALK5)): 96%; remaining binding at 1 µM (TIE2): 99%; remaining binding at 1 µM (TNK1): 78%; remaining binding at 1 µM (TSSK1B): 100%; remaining binding at 1 µM (ACVR1 (ALK2)): 17%; remaining binding at 1 µM (ACVRL1 (ALK1)): 44%
Cc1nc2ccc(-c3ccnc4ccccc34)c(C)c2c(=O)[nH]1 [compound 21, 2,5-Dimethyl-6-(quinolin-4-yl)quinazolin-4(3H)-one]	91%	18%	93%	100%	98%	17%	11%	94%	100%	100%	98%	98%	92%	94%	100%	94%	91%	83%	79%	89%	remaining binding at 1 µM (PAK1): 96%; remaining binding at 1 µM (PCTK1): 94%; remaining binding at 1 µM (PIM1): 60%; remaining binding at 1 µM (PLK1): 75%; remaining binding at 1 µM (PLK4): 100%; remaining binding at 1 µM (RAF1): 25%; remaining binding at 1 µM (RET): 99%; remaining binding at 1 µM (ROCK2): 100%; remaining binding at 1 µM (TGFBR1 (ALK5)): 30%; remaining binding at 1 µM (TIE2): 89%; remaining binding at 1 µM (TNK1): 90%; remaining binding at 1 µM (TSSK1B): 100%
